Entries after “also recorded” stand apart in the source; their conditions may differ.
Assays:
[1] = Gastrointestinal hemorrhage; conditions: in vivo
ICR mice = experiment: Light-dark box; assay type: in vivo
[2] = test system: brain eCB, AA and PG levels; experiment: Brain eCB, NAE, MAG, AA and PG levels after i.p. injection; assay type: in vivo, mice
Human DAGLα = biological target: T1, Human DAGLα (Homo sapiens, UniProt Q9Y4D2); experiment: DAGLα activity (Compound A); assay type: biochemical; conditions: in vitro
T1 construct: made in house; host or cells: HEK293T cells (transfected, pcDNA3.1D); membranes used
T1 sequence (Q9Y4D2 1-1042): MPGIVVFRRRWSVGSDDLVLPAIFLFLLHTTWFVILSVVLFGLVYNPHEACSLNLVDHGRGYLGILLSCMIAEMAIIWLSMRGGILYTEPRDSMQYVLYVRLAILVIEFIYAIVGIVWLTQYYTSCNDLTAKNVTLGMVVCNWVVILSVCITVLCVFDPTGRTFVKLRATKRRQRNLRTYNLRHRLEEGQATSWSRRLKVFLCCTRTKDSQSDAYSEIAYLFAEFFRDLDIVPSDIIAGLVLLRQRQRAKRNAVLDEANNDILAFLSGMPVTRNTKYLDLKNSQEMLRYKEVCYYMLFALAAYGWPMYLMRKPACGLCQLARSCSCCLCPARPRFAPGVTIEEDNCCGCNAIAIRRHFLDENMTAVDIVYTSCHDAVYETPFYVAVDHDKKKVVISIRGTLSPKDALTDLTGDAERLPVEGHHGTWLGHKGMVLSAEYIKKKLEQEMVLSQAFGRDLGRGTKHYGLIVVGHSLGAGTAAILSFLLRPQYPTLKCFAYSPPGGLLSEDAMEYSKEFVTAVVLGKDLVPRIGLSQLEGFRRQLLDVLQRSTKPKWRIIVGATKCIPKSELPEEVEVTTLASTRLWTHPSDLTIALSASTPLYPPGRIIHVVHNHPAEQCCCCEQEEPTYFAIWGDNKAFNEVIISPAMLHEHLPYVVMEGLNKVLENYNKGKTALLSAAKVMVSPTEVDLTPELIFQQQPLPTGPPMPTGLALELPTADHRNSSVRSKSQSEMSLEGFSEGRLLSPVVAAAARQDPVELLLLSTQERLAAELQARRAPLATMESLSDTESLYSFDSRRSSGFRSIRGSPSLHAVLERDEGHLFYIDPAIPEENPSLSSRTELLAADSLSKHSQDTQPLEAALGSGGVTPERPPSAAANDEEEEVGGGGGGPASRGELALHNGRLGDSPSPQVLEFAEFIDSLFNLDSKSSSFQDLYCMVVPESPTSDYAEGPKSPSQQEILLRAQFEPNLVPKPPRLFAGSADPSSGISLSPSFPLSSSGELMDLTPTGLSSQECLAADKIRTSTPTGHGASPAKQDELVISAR

[3] = 10 mg/kg i.p. (Compound A: any dose tested), 2 hours
[4] = 2 hours after i.p administration, dose not stated

COc1ccc2c(c1)c(CC(=O)N1CCOCC1)c(C)n2C(=O)c1ccc(Cl)cc1 [Compound A, 2-[1-(4-Chloro-benzoyl)-5-methoxy-2-methyl-1H-indol-3-yl]-1-morpholin-4-yl-ethanone]
Gastrointestinal hemorrhage [1]: not to cause gastrointestinal hemorrhage
Light-zone time (ICR mice; 10 mg/kg): significantly increased
Number of light-zone entries (ICR mice; 10 mg/kg): significantly increased
Overall locomotor activity in the light-dark box (ICR mice; 10 mg/kg): without significantly affecting
Anxiolytic effects in the light-dark box with Rimonabant (ICR mice; Rimonabant 3 mg/kg): blocked
Whole brain AEA levels ([2]; 3 mg/kg i.p., 2 hours, male ICR mice): significantly increased
Brain 2-AG levels in wild type littermates of COX-2 knockout mice ([2]; 10 mg/kg): significantly increased
Brain 2-AG levels, meta-analysis of 12 cohorts ([2]; 10 mg/kg): 109 % of vehicle
Brain AA or PG levels in WT or COX-2^(−/−) mice ([2]; 10 mg/kg): did not affect
Brain AEA levels in wild type littermates of COX-2 knockout mice ([2]; 10 mg/kg): significantly increased
Brain AEA, meta-analysis of 12 cohorts ([2]; 10 mg/kg): 139 % of vehicle
Brain levels of MAGs other than 2-AG ([2]; 10 mg/kg): did not affect
Brain AA levels [2, 3]: did not significantly affect
Brain PG levels [2, 3]: did not affect
Brain 2-AG levels ([2]; 10 mg/kg i.p. (highest dose), 2 hours, vs vehicle): non-significant trend to increase; also recorded: significantly increased
Brain levels of NAEs other than AEA ([2]; 10 mg/kg i.p., 2 hours): not any other NAE; also recorded: no other NAE
Brain AEA levels ([2]; 10 mg/kg i.p., 2 hours, vs vehicle): significantly increased
Brain 2-AG levels (Example 8) [2, 4]: without affecting
Brain AEA levels (Example 8) [2, 4]: increased
Brain 2-AG levels after JZL-184 treatment, compared to JZL-184 alone ([2]; combination treatment): additional significant increase
Brain AEA levels when combined with PF-3845, compared to PF-3845 alone ([2]; combination treatment): significant additional increase
Brain or lung PG levels (Example 8) ([2]; dose not stated): did not affect
Brain AEA and 2-AG levels in CB1^(−/−) mice ([2]; mouse, in vivo): significantly increased
Brain PG levels in CB1^(−/−) mice ([2]; mouse, in vivo): no effect; also recorded: without affecting
Ability to increase brain AEA levels in COX-2 knockout (KO) mice ([2]; present in wild type littermates): absent
Brain AEA levels in WT and FAAH KO mice ([2]; similar extent in both genotypes): increased
Inhibition of DAGLα (Human DAGLα): did not inhibit
